Test results: patent US20260027380A1, “TECHNIQUES FOR MAGNETIC NANOCLUSTER-BASED COMBINATION THERAPY” (William Marsh Rice University, priority 2022, published 2026)

Tests used:
MC-38 cells [1] = assay: Quantification of intracellular GSH (GSH-Glo); format: cell-based, murine; details: without AMF, 37° C. for 4 h
Protocol: Glutathione (GSH) is an antioxidant that plays an important role in the scavenging of intracellular free radicals and protecting the cells against oxidative damage. GSH depletion will disrupt the redox homeostasis and lead to oxidative stress and eventual cell death. MC-38 cells were treated with 300 μg Fe/mL of IONC or IONC-AAPH and subjected to AMF for 2 hours. The intracellular GSH was quantified after 2 hours of incubation at 37° C. Intracellular GSH was also measured for cells treated with AAPH, IONC, or IONC-AAPH, respectively, without AMF and incubated at 37° C. for 4 h. The intracellular GSH was quantified using a luminescence-based GSH-Glo glutathione assay. FIG. 11 illustrates a GSH depletion measurement of the MC-38 cells 2 hours after treatment. […] In contrast, treating cells with IONC-AAPH under AMF (i.e., with both heating and free radicals) decreased the GSH/GSSG ratio to 55% of that in the control cells.
Quantification of intracellular GSH: MC-38 cells were seeded in 4-compartment cell culture dishes at a density of 1×10^5 cells per compartment and cultured overnight. Then the cells were treated with 300 μg Fe/mL of IONC-AAPH or IONC at 37° C. or under AMF for 2 h. Two hours after the treatment, the culture medium was removed and the intracellular GSH was quantified using a luminescence-based GSH-Glo Glutathione Assay according to the manufacturer's instructions.

MC-38 cells [2] = assay: Mitochondrial membrane potential (JC-1 staining); format: cell-based, murine; details: without AMF
Excerpt: JC-1 dye was used to examine the effect of heat and free radical generation by IONC-AAPH on mitochondria. JC-1 dye is an indicator of mitochondrial membrane potential (MMP). In healthy cells with high MMP, JC-1 accumulates in the mitochondria and forms J-aggregates, which emit red fluorescence. In contrast, apoptotic cells with low MMP, JC-1 diffuses in the cytoplasm and remains as J-monomers, which give green fluorescence. A decrease in J-aggregates to J-monomers ratio indicates MMP loss (i.e., mitochondrial depolarizations). […] The J-aggregates to J-monomers ratios quantified using flow cytometry confirmed the significant MMP loss due to heat and free radicals, as illustrated in FIGS. 9 (depicting results of flow cytometry analysis of mitochondrial membrane potential of MC-38 cells 4 h after treatment by JC-1 staining) and 10 (depicting quantification of the J-aggregate to J-monomer ratio using the mean fluorescence detected by flow cytometry in FIG. 9).
Determination of mitochondrial health: The mitochondrial membrane potential of MC-38 cells was determined with JC-1 staining assay. […] After staining, the cells were imaged with a confocal microscope (Nikon A1-Rsi confocal) or analyzed on a flow cytometer (BD Accuri C6 Plus). The ratio of J-aggregates to J-monomers was calculated using the red and green fluorescence intensity measured by flow cytometry.

subcutaneous MC-38 tumor = assay: Tumor killing effect in vivo, subcutaneous MC-38 mouse tumor model; parameters: species or system C57BL/6N mice
Protocol: The antitumor activity of IONC-AAPH in vivo was evaluated with a subcutaneous MC-38 mouse tumor model. The subcutaneous tumor was induced by inoculating MC-38 cells into the right flank of respective C57BL/6N mice. The mice were randomly divided into 6 groups (n=3): (i) saline, (ii) AAPH, (iii) IONC, (iv) IONC-AAPH, (v) IONC+AMF, and (vi) IONC-AAPH+AMF. When the tumor volume reached 150-200 mm^3, the mice were intratumorally injected with saline, AAPH (2 mM), IONC (5 mg Fe/mL), and IONC-AAPH (5 mg Fe/mL), respectively. After injection the mice in IONC+AMF and IONC-AAPH+AMF groups were subjected to AMF for 1 h. The temperature of the tumors injected with IONC or IONC-AAPH increased rapidly and reached above 45° C. within 5 min, as measured by an infrared thermal camera.
After applying AMF, the temperature in the tumor was much higher than in other parts of the body. […]
Tumor killing effect of IONC-AAPH in vivo: All animal work was approved by the Institutional Animal Care and Use Committee (IACUC) of Rice University. […] The direct tumor killing effect of IONC-AAPH treatment was evaluated with subcutaneous tumor-bearing mice. […] The temperature in the tumor was measured using a high-resolution infrared (IR) camera (E95, Teledyne FLIR). The tumor size was measured daily with a digital caliper, and the tumor volume was calculated as follow: volume=length×width^2/2. […]

CC(C)(N=NC(C)(C)C(=N)N)C(=N)N.Cl.Cl [AAPH, 2,2′-azobis(2-amidinopropane) dihydrochloride]
change in GSH to GSSG ratio (MC-38 cells [1]): did not affect the GSH to GSSG ratio | JC-1 state (mitochondrial membrane potential) (MC-38 cells [2]): J-aggregates were formed | tumor tissue damage (H&E, TUNEL) (subcutaneous MC-38 tumor; without AMF): no tumor tissue damage | tumor weight (subcutaneous MC-38 tumor; without applying AMF): only slightly reduced the tumor weight
